From patent US11419869B2, “Dosage forms and regimens for amino acid compounds” (Pliant Therapeutics, Inc., priority 2019, dated 2022)

How the values were obtained:
[1] = system: normal (healthy) human bronchial epithelial cells; test: LAP adhesion binding assay, normal human bronchial epithelial cells; assay type: cell-based; conditions: cell index (electrical impedance), FIG. 3A
Experimental: Two latency associated peptide (LAP) adhesion binding assays were devised using primary human lung cells, including normal (healthy) human bronchial epithelial cells and human lung fibroblasts (healthy and IPF).
Human bronchial epithelial cells are known to express αvβ6 integrin in culture. Human bronchial epithelial cells were prepared for the assay by dissociation with trypsin/EDTA and were then seeded at 20,000 cells per well on 96 well plates (ACEA Bioscience E-plate View, Acea Biosciences; San Diego, Calif.) previously coated with 5 μg/ml of recombinant human LAP (R&D Systems; Minneapolis, Minn.) and blocked with 4% bovine serum albumin. Cell index (electrical impedance) was measured to assess cell attachment/spreading every 3 minutes for 24 hours at 37° C./5% CO2 using the xCELLigence RTCA MP Instrument (Acea Biosciences; San Diego, Calif.).

[2] = system: pSMAD2:SMAD2 ratio; test: pSMAD2/SMAD2 in BAL from healthy human subjects (Example B13); assay type: in vivo; conditions: Day 7, subjects with Cmax above 700 ng/mL, compared to placebo group, 20 or 40 mg daily
Experimental: In order to evaluate the change of pSMAD2 as a biomarker of TGF-β activity following administration of an integrin inhibitor, and to determine a therapeutically effective dosage and an effective blood plasma Cmax of the integrin inhibitor, healthy subjects were administered compound 5, a dual selective αvβ6/αvβ1-integrin inhibitor, and the corresponding Cmax levels and decrease in phosphorylation levels and were determined.
Healthy non-smoking adult males without history of lung disease were selected as subjects and were randomized into 4 cohorts. Broncoalevaolar lavage samples were obtained from all subjects 1 day prior to start of treatment. Cohorts 1 and 2 were administered 20 mg of a compound daily, wherein 3 subjects were administered the dual selective αvβ6/αvβ1-integrin inhibitor (compound 5) per every 1 subject receiving a placebo compound. Cohorts 3 and 4 were administered 40 mg of a compound daily, wherein 3 subjects were administered the dual selective αvβ6/αvβ1-integrin inhibitor (compound 5) per every 1 subject receiving a placebo compound. BAL samples and blood samples were taken from all subjects on Day −1 (baseline) and on Day 7 (end of treatment).

[3] = target: recombinant human integrin αvβ6 (Homo sapiens (Human), UniProt P06756+P18564); test: Solid Phase Integrin αvβ6 Binding Assay (Examples B1, B2); conditions: TGFβ1 LAP ligand, values given in four ranges, read-out: αvβ6 Inhibition IC50 (nM)-range
How it was run: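 Plates coated with recombinant human αvβ6 (2 μg/mL) compete compound against recombinant TGFβ1 LAP (0.67 μg/mL) in TBS binding buffer with 0.5 mM MnCl2, 2 h at 25 °C. Bound LAP detected with biotin-anti-hLAP and peroxidase-streptavidin; IC50 by four-parameter logistic regression.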

[4] = system: pSMAD2/SMAD2 ratio; test: Precision cut lung slices from human IPF lung tissue, pSMAD2/SMAD2 ratio; assay type: cell-based; conditions: PCLS from 3 IPF lung tissues, seven days, Compound 5 at 1.82 μM, FIG. 6F
Experimental: PCLS from 3 IPF lung tissues were cultured for seven days with Compound 5. […] The ratio of pSMAD2/SMAD2 is also graphed for the PCLS in the presence of 0.1% DMSO control, and an Alk5 inhibitor at 1 μM

recombinant human integrin αvβ6, sequence (P06756 31-992): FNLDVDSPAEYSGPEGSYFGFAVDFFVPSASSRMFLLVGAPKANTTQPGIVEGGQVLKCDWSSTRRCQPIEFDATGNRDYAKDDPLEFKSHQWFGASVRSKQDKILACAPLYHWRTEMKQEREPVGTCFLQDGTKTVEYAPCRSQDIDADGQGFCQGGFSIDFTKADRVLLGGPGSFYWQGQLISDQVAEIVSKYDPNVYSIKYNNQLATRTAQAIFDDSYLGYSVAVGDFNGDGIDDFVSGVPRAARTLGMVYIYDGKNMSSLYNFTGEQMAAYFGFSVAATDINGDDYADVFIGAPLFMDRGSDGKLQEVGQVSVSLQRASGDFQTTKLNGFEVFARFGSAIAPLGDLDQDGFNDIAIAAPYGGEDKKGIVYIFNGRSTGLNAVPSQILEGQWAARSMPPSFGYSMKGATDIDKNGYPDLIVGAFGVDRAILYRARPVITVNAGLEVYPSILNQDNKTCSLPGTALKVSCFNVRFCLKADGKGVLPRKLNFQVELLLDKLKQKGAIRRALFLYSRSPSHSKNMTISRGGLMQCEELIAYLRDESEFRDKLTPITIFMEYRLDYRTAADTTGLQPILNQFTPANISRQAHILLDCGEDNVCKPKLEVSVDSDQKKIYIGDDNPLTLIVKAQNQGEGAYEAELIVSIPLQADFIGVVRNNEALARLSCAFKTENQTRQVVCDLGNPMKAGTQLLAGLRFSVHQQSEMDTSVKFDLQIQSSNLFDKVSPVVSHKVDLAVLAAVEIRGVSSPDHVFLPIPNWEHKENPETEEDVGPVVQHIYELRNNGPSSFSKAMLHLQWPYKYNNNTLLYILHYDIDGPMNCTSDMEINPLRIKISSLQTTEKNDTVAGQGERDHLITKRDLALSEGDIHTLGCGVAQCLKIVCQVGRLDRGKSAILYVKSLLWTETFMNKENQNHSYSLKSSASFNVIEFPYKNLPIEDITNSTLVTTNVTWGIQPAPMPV
recombinant human integrin αvβ6, sequence (P18564 22-707): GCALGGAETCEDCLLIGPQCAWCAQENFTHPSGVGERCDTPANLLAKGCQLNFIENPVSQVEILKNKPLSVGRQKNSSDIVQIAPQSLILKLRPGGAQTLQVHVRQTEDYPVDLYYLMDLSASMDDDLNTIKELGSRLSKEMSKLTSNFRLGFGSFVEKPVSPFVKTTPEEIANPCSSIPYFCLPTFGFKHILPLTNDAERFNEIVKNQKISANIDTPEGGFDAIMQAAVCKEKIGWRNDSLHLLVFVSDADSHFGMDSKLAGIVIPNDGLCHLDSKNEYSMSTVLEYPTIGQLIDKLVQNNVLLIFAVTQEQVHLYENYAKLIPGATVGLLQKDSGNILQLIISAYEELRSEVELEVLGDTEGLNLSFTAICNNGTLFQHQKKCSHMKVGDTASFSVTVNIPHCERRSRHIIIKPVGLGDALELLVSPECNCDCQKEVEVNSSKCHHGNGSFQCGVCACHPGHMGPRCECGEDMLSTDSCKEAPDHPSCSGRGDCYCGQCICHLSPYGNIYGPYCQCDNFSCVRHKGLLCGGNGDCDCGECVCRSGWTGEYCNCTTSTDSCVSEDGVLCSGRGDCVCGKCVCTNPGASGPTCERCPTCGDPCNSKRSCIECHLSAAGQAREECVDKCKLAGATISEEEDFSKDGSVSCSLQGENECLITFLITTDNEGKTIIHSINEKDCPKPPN

COCCN(CCCCc1ccc2c(n1)NCCC2)CC[C@H](Nc1ncnc2ccccc12)C(=O)O [Compound 5, (S)-4-((2-methoxyethyl) (4-(5,6,7,8-tetrahydro-1,8-naphthyridin-2-yl)butyl)amino)-2-(quinazolin-4-ylamino) butanoic acid]
normal bronchial epithelial cell adhesion to LAP [1]: substantially inhibited | reduction in pSMAD2:SMAD2 ratio [2]: ≥ 50% | IC50 [3]: < 50 nM | reduction of pSMAD2/SMAD2 ratio [4]: approximately 50%
